Results: patent publication US5763700A, “Pesticidal fluoroolefins” (British Technology Group Limited, priority 1992, dated 1998)

System: cornroot worm (Diabrotica balteata)
Test: Residual soil activity against cornroot worm larvae, mortality after 48 hours, LC50 by probit analysis
Format: in vivo
Settings: sandy soil, 10% moisture, 22 g, 20° C., 10 larvae, two replicates, 5 dose levels
Experimental: Residual soil activity of the compounds of Examples 25 to 40 was assessed against cornroot worm (Diabrotica balteata) using the following technique.
A known quantity of test compound dissolved in 1.0 ml acetone was applied evenly to a standard amount (22 g) of a sandy soil with a 10% moisture content. After 1 hour, 10 larvae were introduced. The temperature was maintained at 20° C. ±1° C. and mortality assessed after 48 hours. Two replicates of 10 larvae were used at each of 5 dose levels per compound. LC50 values were calculated as concentration of insecticide in the standard amount of soil using probit analysis.

Row | Structure (SMILES) | Residual Soil Activity (LC50)
1 | CCOc1ccc(C2(/C=C(\F)Cc3ccc(F)c(Oc4ccccc4)c3)CC2)cc1 [Example 34, 1-(4-Ethoxyphenyl)-1-(2-fluoro-3-(4-fluoro-3-phenoxyphenyl)prop-1-enyl)cyclopropane] | 0.031 ppm
2 | F/C(=C\C1(c2ccc(F)cc2)CC1)Cc1cccc(Oc2ccccc2)c1 [Example 28, 1-(2-Fluoro-3-(3-phenoxyphenyl)prop-1-enyl)-1-(4-fluorophenyl)cyclopropane] | 0.015 ppm
3 | F/C(=C\C1(c2ccc(OC(F)(F)F)cc2)CC1)Cc1cccc(Oc2ccccc2)c1 [Example 27, 1-(2-Fluoro-3-(3-phenoxyphenyl)prop-1-enyl)-1-(4-trifluoromethoxy-phenyl)cyclopropane] | 0.038 ppm
4 | F/C(=C\C1(c2ccc(C(F)(F)F)cc2F)CC1)Cc1ccc(F)c(Oc2ccccc2)c1 [Example 36, 1-(2-Fluoro-3-(4-fluoro-3-phenoxyphenyl)prop-1-enyl)-1-(2-fluoro-4-trifluoromethylphenyl)cyclopropane] | 0.021 ppm
5 | F/C(=C\C1(c2ccc(F)cc2)CC1)Cc1ccc(F)c(Oc2ccccc2)c1 [Example 35, 1-(2-Fluoro-3-(4-fluoro-3-phenoxyphenyl)prop-1-enyl)-1-(4-fluorophenyl)cyclopropane] | 0.032 ppm
6 | FC(F)(F)Oc1ccc(C2(/C=C/Cc3cccc(Oc4ccccc4)c3)CC2)cc1 [Comp D, 1-(4-trifluoromethoxyphenyl)-1-(E-3-(3-phenoxyphenyl)prop-1-enyl)-cyclopropane, reference compound] | 0.059 ppm
7 | CCOc1ccc(C2(/C=C(\F)Cc3cccc(Oc4ccccc4)c3)CC2)cc1 [Example 26, 1-(4-Ethoxyphenyl)-1-(2-fluoro-3-(3-phenoxyphenyl)prop-1-enyl)cyclopropane] | 0.029 ppm
8 | CCOc1ccc(C2(/C=C/Cc3ccc(F)c(Oc4ccccc4)c3)CC2)cc1 [Comp B, 1-(4-ethoxyphenyl)-1-(E-3-(4-fluoro-3-phenoxyphenyl)prop-1-enyl)-cyclopropane, reference compound] | 0.43 ppm
9 | F/C(=C\C1(c2ccc3c(c2)OCO3)CC1)Cc1cccc(Oc2ccccc2)c1 [Example 30, 1-(2-Fluoro-3-(3-phenoxyphenyl)prop-1-enyl)-1-(3,4-methylenedioxyphenyl)cyclopropane] | 0.021 ppm
10 | Fc1ccc(C2(/C=C/Cc3ccc(F)c(Oc4ccccc4)c3)CC2)cc1 [Comp C, 1-(4-fluorophenyl)-1-(E-3-(4-fluoro-3-phenoxyphenyl)prop-1-enyl)-cyclopropane, reference compound] | 0.059 ppm
11 | F/C(=C\C1(c2ccc(Cl)cc2)CC1)Cc1cccc(Oc2ccccc2)c1 [Example 25, 1-(4-Chlorophenyl)-1-(2-fluoro-3-(3-phenoxyphenyl)prop-1-enyl)cyclopropane] | 0.031 ppm
12 | F/C(=C\C1(c2ccc(OC(F)F)cc2)CC1)Cc1cccc(Oc2ccccc2)c1 [Example 32, 1-(4-Difluoromethoxyphenyl)-1-(2-fluoro-3-(3-phenoxyphenyl)prop-1-enyl)cyclopropane] | 0.055 ppm
13 | F/C(=C\C1(c2ccc3c(c2)OCO3)CC1)Cc1ccc(F)c(Oc2ccccc2)c1 [Example 37, 1-(2-Fluoro-3-(4-fluoro-3-phenoxyphenyl)prop-1-enyl)-1-(3,4-methylenedioxyphenyl)cyclopropane] | 0.055 ppm
14 | Fc1ccc(C/C=C/C2(c3ccc(Cl)cc3)CC2)cc1Oc1ccccc1 [Comp A, 1-(4-chlorophenyl)-1-(E-3-(4-fluoro-3-phenoxyphenyl)prop-1-enyl)-cyclopropane, reference compound] | 0.68 ppm
15 | F/C(=C\C1(c2ccc(OC(F)F)cc2)CC1)Cc1ccc(F)c(Oc2ccccc2)c1 [Example 39, 1-(4-Difluoromethoxyphenyl)-1-(2-fluoro-3-(4-fluoro-3-phenoxyphenyl)prop-1-enyl)cyclopropane] | 0.033 ppm
16 | F/C(=C\C1(c2ccc(C(F)(F)F)cc2F)CC1)Cc1cccc(Oc2ccccc2)c1 [Example 29, 1-(2-Fluoro-3-(3-phenoxyphenyl)prop-1-enyl)-1-(2-fluoro-4-trifluoromethylphenyl) cyclopropane] | 0.030 ppm
